A word on the TGI: it is the concentration at which net growth stops. The low end stands for greater sensitivity of the cells, the high end for lower sensitivity of the cells. Broadly, the GI50 is the concentration giving 50% growth inhibition.

Experiment in all cases: DTP human tumour cell line panel, 48 h
Test [1] deals with DLD-1 colon.
Test [2] deals with K-562 leukemia.
For test [3], the system named is SF-268 CNS.
Test [4] relates to NCI-H226 lung.
Test [5] concerns CAKI-1 renal.
In test [6] the test system is TK-10 renal.
The subject of test [7] is DMS 273 small cell lung.
Test [8] has as its system SNB-75 CNS.
Test [9] has as its system SF-295 CNS.
Test [10] has as its system SNB-19 CNS.

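How tested: cells in 96-well plates exposed to compound for 48 hours at five concentrations. GI50 is the concentration that inhibits growth by half. Definition used: TGI = concentration required for complete inhibition of growth.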

As for `CN1C(c2ccccc2)CC(C)(O)CC1c1ccccc1` (stereo unspecified), the TGI in [1], in [2], in test [3], in [4], in test [5] and in [6] was > 100 µM throughout. For the same molecule, the total growth inhibition concentration (TGI) in test [7], in test [8], in test [9] and in [10] was > 100 µM in each case.
As for `Cn1cnc([N+](=O)[O-])c1Sc1nc2ccccc2o1`, the total growth inhibition concentration (TGI) was 16.6 µM in [1]; 11.3 µM in [2]; 14.4 µM in test [3]; 30.9 µM in test [4]; 6.19 µM in [5]; 22.9 µM in [6]. In addition, the TGI in test [7] worked out at 9.93 µM; in test [8], 32.9 µM; in test [9] it was 74.9 µM; in test [10], 30.9 µM.
For the molecule `CCC[CH2][Sn]1([CH2]CCC)[O]C(=O)CN=C(C)c2ccccc2[O]1`, the GI50 in [1] is 1.94 µM; in test [2], 0.289 µM; in [3] it was 0.306 µM; in [5] it was 0.534 µM; in test [6], 0.586 µM; in [7] it was 1.39 µM. Besides, the GI50 in [8] was 0.735 µM; in test [9], 1.48 µM; in [10] it was 1.09 µM. Further, the total growth inhibition concentration (TGI) in test [1] was > 100 µM; in test [2], 4.74 µM; in [3], 1.65 µM; in [5] it was 2.1 µM; in test [6] it was 1.78 µM; in [7], 2.74 µM. Besides, the TGI in test [8] was 2.34 µM; in test [9], 2.86 µM; in test [10] it was 2.29 µM.
Take `O=C(O)CCC(=O)Oc1ccc(O)c2c1CCCC2=O`: the concentration for total growth inhibition (TGI) in [1], in [2], in [3], in [4], in test [6] and in test [7] was > 100 µM throughout. Moreover, the TGI in test [8], in [9] and in test [10] was > 100 µM each time.
On to `N#CC(C(=O)CCC(=O)Nc1ccc(Cl)cc1)c1ccc(Cl)cc1` (stereo unspecified), for which the TGI in [1], in [2], in [3], in [4], in [5] and in [6] was > 100 µM in each case. Moreover, the total growth inhibition concentration (TGI) in [7], in test [9] and in [10] was > 100 µM in each case.
As for `O=C1C(Cl)=C(Cl)C(=O)N1c1ccccc1Cl`, the TGI in test [1] is > 94.7 µM; in test [2], > 81 µM; in test [3], > 100 µM; in test [4] it was > 100 µM; in test [5], > 60.9 µM; in test [6], > 100 µM. Besides, the total growth inhibition concentration (TGI) in test [7], in test [8], in test [9] and in test [10] was > 100 µM throughout.
Consider `CCC(C)C(=O)O[C@H]1C(=O)O[C@@H]2C[C@H]3C(C)=CC(=O)[C@@H](O)[C@]3(C)[C@H]3[C@@H](O)[C@H](O)[C@@]4(C)OC[C@]32[C@@H]14` (stereo partly specified), for which the concentration for total growth inhibition (TGI) in test [1] is 0.317 µM; in test [2], 0.214 µM; in [3] it was 0.454 µM; in test [4] it was < 0.0259 µM; in test [6], < 0.0389 µM; in [7], 0.0468 µM. In addition, the results for the concentration for total growth inhibition (TGI) in [8] and in test [10] were < 0.0299 µM and < 0.0291 µM, respectively.
As to `O=C(CCC(=O)Nc1ccc(Cl)cc1)CC(=O)c1ccc2ccccc2c1`, the TGI in [1], in test [2], in test [3], in test [4], in test [5] and in [6] was > 100 µM in each case. Moreover, the TGI in test [7], in test [8], in [9] and in [10] was > 100 µM in each case.
`O=C(Nc1ccccc1)n1cc(-c2ccccn2)c(N2CCOCC2)n1`: the total growth inhibition concentration (TGI) is > 100 µM in test [1]; > 100 µM in [2]; > 100 µM in test [3]; > 100 µM in [4]; 49.7 µM in [5]; > 100 µM in test [6]. In addition, the TGI was 42.1 µM in [7], 43.7 µM in test [8], 28.2 µM in [9] and > 100 µM in [10].
For `Cc1ccccc1C=NC12CC3CC(CC(C3)C1)C2`, the TGI in test [1], in test [2], in [3], in test [4], in [5] and in test [6] was > 100 µM each time. The TGI in test [7], in test [8], in [9] and in test [10] was > 100 µM in each case.
Take `Cn1nc(-c2ccccc2)c2c(/C=C/c3ccc(Cl)cc3)onc2c1=O`: the TGI in test [1] is > 100 µM; in test [2], > 100 µM; in [3], > 100 µM; in [6], > 100 µM; in test [7] it was > 100 µM; in [9] it was 68.8 µM. Besides, the concentration for total growth inhibition (TGI) in test [10] is > 100 µM.
`COC(=O)C(=NNc1ccccc1[N+](=O)[O-])C(=O)OC`: the concentration for total growth inhibition (TGI) in test [2], in [3], in test [4], in test [5], in [6] and in test [7] was > 100 µM throughout. Also, the TGI in [9] and in test [10] was > 100 µM each time.
Take `O=C(CN(Cc1ccccc1)Cc1ccccc1)N1CCc2c([nH]c3ccccc23)C1c1cccnc1` (stereo unspecified): the total growth inhibition concentration (TGI) in test [1] was > 100 µM; in test [2] it was > 100 µM; in test [3], > 100 µM; in test [5], > 100 µM; in [6] it was > 100 µM; in [7], 82.8 µM. The total growth inhibition concentration (TGI) was 81.9 µM in test [8], > 100 µM in test [9] and > 100 µM in test [10].
`O=C[C@]12CC=C3OC4OC5(CCCCC5)OC4[C@H]3[C@H]1C(=O)C=CC2=O` (stereo partly specified): the total growth inhibition concentration (TGI) in [1] is 38.9 µM; in test [3], 89 µM; in test [4], > 100 µM; in test [5] it was 74.6 µM; in test [6], 81.3 µM; in test [7] it was > 100 µM. Besides, the TGI in [9] and in [10] was > 100 µM each time.

(Values after PubChem BioAssay (NCI).)
